Among the test systems are COLO 205 colon; HCT-116 colon; HCT-15 colon; HOP-62 NSCLC; K-562 leukemia; NCI-H226 lung; RXF 393 renal; SF-539 CNS; SK-MEL-2 melanoma; SK-MEL-5 melanoma.
Common to all, as to experiment: NCI-60 cell line screen, 48 h

Here are results for five compounds from PubChem BioAssay (NCI).

SMILES strings stand for the structures. Where “and” joins values, the source holds several entries; their conditions need not be identical. Identical values can stand only once.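 How tested: cells in 96-well plates exposed to compound for 48 hours at five concentrations. At the GI50, growth is halved. TGI denotes the concentration required for complete inhibition of growth.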

On to `CC1=NOC(=O)/C1=C/c1cccc2ccccc12`, for which the TGI with COLO 205 colon, in the assay on HCT-116 colon, in the assay on HCT-15 colon, in the assay on HOP-62 NSCLC, in the assay with K-562 leukemia and in the assay with NCI-H226 lung was above 100 µM throughout. In addition, the TGI in the assay with RXF 393 renal, in the assay with SF-539 CNS, with SK-MEL-2 melanoma and in the assay on SK-MEL-5 melanoma was above 100 µM throughout.

For `O=C1CCC2CC(C(=O)c3ccccc3)CCC2CN1` (stereo not given) (tested in a mixture with another compound), the TGI in the assay on COLO 205 colon, in the assay on HCT-116 colon, with HCT-15 colon, in the assay with HOP-62 NSCLC, in the assay with K-562 leukemia and in the assay on NCI-H226 lung was above 100 µM in each case. Besides, the TGI with RXF 393 renal, in the assay with SF-539 CNS, in the assay on SK-MEL-2 melanoma and in the assay on SK-MEL-5 melanoma was above 100 µM each time.

In the case of `COc1ccc2cc(-c3cc4c(oc3=O)-c3ccccc3OC4O)c(=O)oc2c1` (stereo not given), the GI50 in the assay with COLO 205 colon was 16.1 µM; in the assay with HCT-116 colon it was 20.2 µM; in the assay on HCT-15 colon it was 15.8 µM; with HOP-62 NSCLC, 20.3 µM; in the assay with K-562 leukemia, 92.9 µM; in the assay with NCI-H226 lung it was 16.1 µM. Also, the GI50 is 18.7 µM in the assay with RXF 393 renal, 15.2 µM with SF-539 CNS, 15.6 µM in the assay on SK-MEL-2 melanoma and 13.2 µM with SK-MEL-5 melanoma. For the same compound, the TGI was 33.4 µM in the assay on COLO 205 colon; 34.7 µM in the assay on HCT-116 colon; 32 µM in the assay with HCT-15 colon; 35.4 µM in the assay with HOP-62 NSCLC; above 100 µM with K-562 leukemia; 34 µM in the assay on NCI-H226 lung. Moreover, the TGI amounted to 36.4 µM in the assay on RXF 393 renal, 29.2 µM in the assay on SF-539 CNS, 31.4 µM in the assay on SK-MEL-2 melanoma and 26.9 µM with SK-MEL-5 melanoma.

Take `C=CC(=O)NCc1cccc(Nc2ncc(Br)c(NCCCNC(=O)C3CCC3)n2)c1`: the GI50 in the assay with COLO 205 colon is 0.403 µM; in the assay on HCT-116 colon it was 1.75 µM and 0.603 µM; in the assay with HCT-15 colon, 2.27 µM and 2.65 µM; in the assay on HOP-62 NSCLC it was 0.448 µM and 0.152 µM; in the assay on K-562 leukemia, 2.99 µM and 0.937 µM; in the assay on NCI-H226 lung, 0.999 µM and 0.448 µM. The GI50 in the assay on RXF 393 renal was 0.166 µM and 0.123 µM; in the assay with SF-539 CNS, 0.369 µM and 0.475 µM; in the assay with SK-MEL-2 melanoma, 2.17 µM and 2.93 µM; in the assay on SK-MEL-5 melanoma, 2.23 µM and 1.87 µM. For the same compound, the TGI with COLO 205 colon was 2.01 µM; in the assay with HCT-116 colon, 12.5 µM and 14.3 µM; in the assay on HCT-15 colon it was 12.5 µM and 13.2 µM; with HOP-62 NSCLC it was 9.77 µM and 4.33 µM; in the assay on K-562 leukemia it was 12.5 µM and > 25 µM; with NCI-H226 lung, 7.85 µM and 11.8 µM. Further, the TGI in the assay on RXF 393 renal is 0.844 µM and 0.468 µM; in the assay with SF-539 CNS, 2.03 µM and 2.72 µM; with SK-MEL-2 melanoma, 5.57 µM and 7.08 µM; in the assay with SK-MEL-5 melanoma, 5.35 µM and 5.81 µM.

Consider `O=C1NC(=O)C(=C/C=C/c2ccccc2)C(=O)N1`, for which the GI50 with COLO 205 colon was 2.33 µM; in the assay on HCT-116 colon, 1.71 µM; with HCT-15 colon it was 2.2 µM; in the assay with HOP-62 NSCLC it was 12 µM; in the assay on K-562 leukemia it was 4.94 µM; in the assay with NCI-H226 lung, 2.81 µM. In addition, the GI50 is 1.39 µM with RXF 393 renal, 2.33 µM in the assay with SF-539 CNS, 3.65 µM in the assay with SK-MEL-2 melanoma and 2.24 µM with SK-MEL-5 melanoma. In addition, the TGI in the assay with COLO 205 colon amounted to 4.97 µM; in the assay on HCT-116 colon it was 3.28 µM; in the assay with HCT-15 colon, 7.06 µM; in the assay on HOP-62 NSCLC, 25.5 µM; in the assay on K-562 leukemia, 70 µM; in the assay with NCI-H226 lung, 7.25 µM. Further, the TGI in the assay on RXF 393 renal came out at 2.71 µM; in the assay with SF-539 CNS, 6.3 µM; in the assay on SK-MEL-2 melanoma it was 16.2 µM; with SK-MEL-5 melanoma it was 4.94 µM.
